{"source": "ChEMBL document CHEMBL1155003", "about": "“Halicyclamine A, a marine spongean alkaloid as a lead for anti-tuberculosis agent” (2008)", "assay_type_in_all_cases": "functional", "conditions_in_all_cases": "336 h", "key": {"[1]": {"system": "Mycobacterium tuberculosis", "experiment": "Antitubercular activity against ethambutol-resistant Mycobacterium tuberculosis H37Rv ATCC 35837 after 14 days"}, "[2]": {"system": "Mycobacterium tuberculosis", "experiment": "Antitubercular activity against isoniazid-resistant Mycobacterium tuberculosis H37Rv ATCC 35822 after 14 days"}, "[3]": {"system": "Mycobacterium tuberculosis", "experiment": "Antitubercular activity against rifampicin-resistant Mycobacterium tuberculosis H37Rv ATCC 35838 after 14 days"}, "[4]": {"system": "Mycobacterium tuberculosis", "experiment": "Antitubercular activity against streptomycin-resistant Mycobacterium tuberculosis H37Rv ATCC 35820 after 14 days"}}}
{"molecule": "C1=C2CCCC/C=C\\C=C\\CCN3CC[C@@H]4[C@H](CCCCCC/C=C\\C=C/CCN(C2)C[C@H]14)C3", "note": "[HALICYCLAMINE A]", "values": [{"measurement": "MIC", "setting": "[1]", "result": 3.13, "unit": "µg/mL"}, {"measurement": "MIC", "setting": "[2]", "result": 3.13, "unit": "µg/mL"}, {"measurement": "MIC", "setting": "[3]", "result": 3.13, "unit": "µg/mL"}, {"measurement": "MIC", "setting": "[4]", "result": 6.25, "unit": "µg/mL"}]}
